What was measured:
[1] = system: animal models of NPC disease; settings: biweekly intrathecal (IT) injection; cited from earlier work
[2] = system: HEK293 cells; assay: NPC1 protein expression in HEK293 cells transfected with viral genome constructs (ELISA and Western Blot, normalized to GAPDH and transfection efficiency); assay type: cell-based; settings: for % over Ref. (% overexpression compared to that of the reference ITR_ITR 2): transfection, NPC1 protein vs reference ITR_ITR 2 (SEQ ID NO: 1753), Table 6; for NPC1 expression normalized to GAPDH and transfection efficiency: EF-1a promoter variants with wtNPC1, FIG. 2
Text: The viral genome constructs encoding NPC1 generated, and investigated for expression of NPC1 protein in vitro. Use of different promoters (e.g., CBA promoters or variants thereof, CMV promoters and variants thereof, EF1a promoter variants) and/or codon optimized nucleotide sequences encoding the NPC1 protein (e.g., SEQ ID NO: 1750 or SEQ ID NO: 1749) (Table 6). An additional set of viral genome constructs were also investigated, testing different combinations of promoters and codon optimized sequences (Tables 7, 9 and 10).
In order to assess NPC1 expression, the viral genome constructs comprising a promoter operably linked to a transgene encoding were transfected into HEK293 cells. NPC1 protein level was determined by ELISA and Western Blot, and normalized to GAPDH control and transfection efficiency. The expression of NPC1 was calculated as percent overexpression relative to the reference construct (ITR_ITR 2 (SEQ ID NO: 1753) which comprises promoter variant 8 (SEQ ID NO: 1782) and the wild-type nucleotide sequence encoding NPC1 (SEQ ID NO: 1747)) (% over reference or % overexpression to reference).
Table 9 summarizes the constructs tested that comprise promoter variant 11 (SEQ ID NO: 1785), promoter variant 13 (SEQ ID NO: 1787), promoter variant 15 (SEQ ID NO: 1789), or promoter variant 18 (SEQ ID NO: 1791), operably linked to a transgene encoding NPC1 (wild-type or codon optimized nucleotide sequences encoding NPC1). These constructs were transfected into HEK293 cells, and the NPC1 protein expression was measured by ELISA and/or western blot and normalized to expression of a GAPDH control and transfection efficiency. The percent overexpression compared to a reference construct (ITR_ITR2 (SEQ ID NO: 1753), which comprises promoter variant 8 (SEQ ID NO: 1782) and the wild-type nucleotide sequence encoding NPC1 (SEQ ID NO: 1747)) was then calculated for each construct tested (% overexpression to reference) (Table 9, FIGS. 2-3).

[3] = system: human neuronal cells; assay: NPC1 protein expression in human neuronal cells; assay type: cell-based; settings: human neurons, transduced; FIG. 10A
Text: Cell-lines and reagents: Standard cell-lines are used for initial screening. This includes lines from multiple species to align with in vivo studies. Since transduction of both neuronal and non-neuronal cell types are needed in vivo, two neuronal and two non-neuronal cell types are used for in vitro screening. These cell lines include naïve neuronal SK-N-AS cells (procured from ATCC), primary neuronal cultures from NPC1^−/− mice (see below), immortalized human hepatocytes (procured from Creative Bioarray or ATCC), NPC1 patient fibroblasts (procured from Coriell) and/or iPS Cells derived from NPC1 patients (Yu, Xiao-Hua, et al. “NPC1, intracellular cholesterol trafficking and atherosclerosis.”Clinica chimica acta 429 (2014): 69-75, the disclosure of which is incorporated by reference in its entirety). Example cell lines for use in assays described herein include fibroblast cell lines, which may be procured from Coriell Institute (Camden, N.J., United States). […]
NPC1 protein expression was further assessed for constructs ITR_ITR 2, ITR_ITR 1, ITR_ITR 3, ITR_ITR 4, and ITR_ITR 5 (SEQ ID NOs: 1753, 1752, and 1754-1756, respectively) in hepatocytes (FIG. 5, left graph) and constructs ITR_ITR 2, ITR_ITR 1, ITR_ITR 3, ITR_ITR 4, ITR_ITR 5, ITR_ITR 6, and ITR_ITR 7 (SEQ ID NOs: 1753, 1752, and 1754-1758, respectively) in human neuronal cells (FIG. 5, right graph). […]

[4] = system: NPC1 patient fibroblasts; assay: NPC1 protein expression in NPC1 patient fibroblasts; assay type: cell-based, human; settings: transduced, FIG. 10B
Text: NPC1/2 is overexpressed in HEK 293 cells using the AAV vector of Example 1 or other method of transfection. Western Blot and ELISA detection protocols are optimized using routine experimentation to establish assays for NPC1/2 protein detection. These and additional biochemical studies are used to validate assays and establish cell lines for additional in vitro analysis. For example, Western Blot and ELISA assays can be performed and optimized using fibroblast cell lines, which may be obtained from Coriell Institute (Camden, N.J., United States). Fibroblast cell lines can be from healthy individual donors (e.g., Coriell catalog nos. GM00038, GM00302, GM00500, GM00969, and/or GM05758—referred to respectively herein as H1, H2, H3, H4, and H5 cell lines) or from diagnosed Niemann-Pick Disease, Type C1 patient donors (e.g., Coriell catalog nos. GM00110, GM03123, GM18436, and/or GM23162 referred to respectively herein as N1, N2, N3, and N4 cell lines).
NPC1 protein expression was assessed in healthy and NPC1 patient fibroblasts according to the assays described in Example 2. […] ITR_ITR 1 rescued NPC1 protein to near 100% relative to healthy fibroblasts. ITR_ITR 3 and ITR_ITR 5 rescued NPC1 protein to 100% or greater relative to healthy fibroblasts. […]

[5] = % overexpression vs reference, Table 8

Molecule: CCCCN1C[C@H](O)[C@@H](O)[C@H](O)[C@H]1CO [Miglustat]
- efficacy in animal models of NPC disease [1]: effectively delay the onset of neurological signs, ameliorate cerebellar and liver dysfunction, and prolong lifespan

Molecule: wtNPC1: Wild type Human NPC1 Coding Sequence, SEQ ID NO: 1747 [reference compound]
- NPC1 expression, CBA promoter with intron [2, 5]: 72%
- NPC1 expression, CBA promoter without intron [2, 5]: −15%
- NPC1 expression, CMV promoter with intron [2, 5]: 356%
- NPC1 expression, CMV promoter without intron [2, 5]: 203%
- NPC1 expression, Promoter Variant 8 (SEQ ID NO: 1782) with intron [2, 5]: 311%

Molecule: ITR_ITR 41: Viral genome SEQ ID NO: 1833: CMVie enhancer (SEQ ID NO: 1737); short CBA promoter; WT NPC1 protein coding sequence
- % over Ref. (% overexpression compared to that of the reference ITR_ITR 2) [2]: 165%

Molecule: 2-hydroxypropyl-β-cyclodextrin
- efficacy in animal models of NPC disease [1]: effectively delay the onset of neurological signs, ameliorate cerebellar and liver dysfunction, and prolong lifespan

Molecule: ITR_ITR 7: Viral genome SEQ ID NO: 1758: short CBA promoter (SEQ ID NO: 1735); WT NPC1 protein coding sequence
- % over Ref. (% overexpression compared to that of the reference ITR_ITR 2) [2]: −15%

B1: Promoter Variant 11: EF-1a promoter variant, 236 nt, SEQ ID NO: 1785 (nucleic acid)
DNA: CGTGAGGCTCCGGTGCCCGTCAGTGGGCAGAGCGCACATCGCCCACAGTCCCCGAGAAGTTGGGGGGAGGGGTCGGCAATTGAACCGGTGCCTAGAGAAGGTGGCGCGGGGTAAACTGGGAAAGTGATGTCGTGTACTGGCTCCGCCTTTTTCCCGAGGGTGGGGGAGAACCGTATATAAGTGCAGTAGTCGCCGTGAACGTTCTTTTTCGCAACGGGTTTGCCGCCAGAACACAG
- NPC1 expression normalized to GAPDH and transfection efficiency [2]: increased NPC1 expression relative to the ITR_ITR 2 reference construct
- NPC1 expression (NPC1/B-actin) [3]: increased expression of NPC1 compared to the CMV promoter

B2: CMV promoter: short CMV promoter, 205 nt, SEQ ID NO: 1736 (nucleic acid)
DNA: GTGATGCGGTTTTGGCAGTACATCAATGGGCGTGGATAGCGGTTTGACTCACGGGGATTTCCAAGTCTCCACCCCATTGACGTCAATGGGAGTTTGTTTTGGCACCAAAATCAACGGGACTTTCCAAAATGTCGTAACAACTCCGCCCCATTGACGCAAATGGGCGGTAGGCGTGTACGGTGGGAGGTCTATATAAGCAGAGCTC
- NPC1 expression (NPC1/B-actin) [4]: increased expression of NPC1 compared to Promoter Variant 11

B3: Promoter Variant 18: EF-1a promoter variant, 263 nt, SEQ ID NO: 1791 (nucleic acid)
DNA: GTCATCACTGAGGTGGAGAAGAGCATGCGTGAGGCTCCGGTGCCCGTCAGTGGGCAGAGCGCACATCGCCCACAGTCCCCGAGAAGTTGGGGGGAGGGGTCGGCAATTGAACCGGTGCCTAGAGAAGGTGGCGCGGGGTAAACTGGGAAAGTGATGTCGTGTACTGGCTCCGCCTTTTTCCCGAGGGTGGGGGAGAACCGTATATAAGTGCAGTAGTCGCCGTGAACGTTCTTTTTCGCAACGGGTTTGCCGCCAGAACACAG
- NPC1 expression normalized to GAPDH and transfection efficiency [2]: increased NPC1 expression relative to the ITR_ITR 2 reference construct

B4: Promoter Variant 13: EF-1a promoter variant, 241 nt, SEQ ID NO: 1787 (nucleic acid)
DNA: GCATGCGTGAGGCTCCGGTGCCCGTCAGTGGGCAGAGCGCACATCGCCCACAGTCCCCGAGAAGTTGGGGGGAGGGGTCGGCAATTGAACCGGTGCCTAGAGAAGGTGGCGCGGGGTAAACTGGGAAAGTGATGTCGTGTACTGGCTCCGCCTTTTTCCCGAGGGTGGGGGAGAACCGTATATAAGTGCAGTAGTCGCCGTGAACGTTCTTTTTCGCAACGGGTTTGCCGCCAGAACACAG
- NPC1 expression normalized to GAPDH and transfection efficiency [2]: increased NPC1 expression relative to the ITR_ITR 2 reference construct

B5: Promoter Variant 15: EF-1a promoter variant, 252 nt, SEQ ID NO: 1789 (nucleic acid)
DNA: GGTGGAGAAGAGCATGCGTGAGGCTCCGGTGCCCGTCAGTGGGCAGAGCGCACATCGCCCACAGTCCCCGAGAAGTTGGGGGGAGGGGTCGGCAATTGAACCGGTGCCTAGAGAAGGTGGCGCGGGGTAAACTGGGAAAGTGATGTCGTGTACTGGCTCCGCCTTTTTCCCGAGGGTGGGGGAGAACCGTATATAAGTGCAGTAGTCGCCGTGAACGTTCTTTTTCGCAACGGGTTTGCCGCCAGAACACAG
- NPC1 expression normalized to GAPDH and transfection efficiency [2]: increased NPC1 expression relative to the ITR_ITR 2 reference construct
